The target of assay [1] is T1, XIAP-BIR3 (Homo sapiens, UniProt P98170).
T1 construct: serial dilutions of MLXBIR3SG, XIAP-BIR3, cIAP1XBIR3, or cIAP2XBIR3
The assay can be described thus: Fluorescence polarization peptide binding assay, XIAP-BIR3. Conditions: 0.5 μM XIAP-BIR3, 5 nM AVP-diPhe-FAM probe; for Ki: Ki determined from IC50, read-out: XIAPBIR3 Ki; for IC50: read-out: XIAPBIR3 IC50. The protocol:
(§1) Polarization experiments were performed on an Analyst HT 96-384 (Molecular Devices Corp.) according to the procedure of Keating, S. M., Marsters, J, Beresini, M., Ladner, C., Zioncheck, K., Clark, K., Arellano, F., and Bodary, S. (2000) in Proceedings of SPIE: In Vitro Diagnostic Instrumentation (Cohn, G. E., Ed.) pp 128-137, Bellingham, Wash. Initial polarization experiments were performed in order to determine dissociation constants (Kd) between IAP protein BIR domains and fluorescent probes. Samples for fluorescence polarization affinity measurements were prepared by addition of serial dilutions of MLXBIR3SG, XIAP-BIR3, cIAP1XBIR3, or cIAP2XBIR3 in polarization buffer (50 mM Tris [pH 7.2], 120 mM NaCl, 1% bovine globulins, 5 mM DTT and 0.05% octylglucoside) to 5 nM 5-carboxyflourescein (5-FAM)-conjugated AVP-diphenylalanine-AKK (AVP-diPhe-FAM). The resulting reactions were incubated for 30 minutes at room temperature in 384-well black HE96 plates (Molecular Devices Corp.; Sunnyvale, Calif.) and fluorescence values were measured using standard filters for the fluorescein fluorophore (λex=485 nm, λem=530 nm). Fluorescence polarization values were plotted as a function of the protein concentration and the 50% effective concentration (EC50) values were obtained by fitting the data to a four-parameter equation using KaleidaGraph software (Synergy Software; Reading, Pa.). The apparent Kd values were determined from the EC50 values.
(§2) Inhibition constants (Ki) for the antagonists were determined by addition of 0.06 μM MLXBIR3SG, 0.5 μM XIAP-BIR3, 0.2 μM cIAP1XBIR3 or 0.4 μM cIAP2XBIR3 to wells containing 1:3 serial dilutions of the antagonists, and 5 nM AVP-diPhe-FAM probe in the polarization buffer. After a 10 to 30-minute incubation period, the fluorescence value of each sample was measured. Fluorescence polarization values were plotted as a function of the antagonist concentration, and the 50% inhibitory concentration (IC50) values were determined by fitting the data to a four-parameter equation using KaleidaGraph software. The Ki values for the antagonists were determined from the IC50 values (Keating et al. 2000).
(In general: Fluorescence polarisation rises when a labelled molecule tumbles more slowly, as on binding a larger partner.)

Assay [2] has as its target T2, MLXBIR3SG (Homo sapiens, UniProt Q96CA5, S150G).
T2 sequence (Q96CA5 with tags, fused parts or gaps S150G): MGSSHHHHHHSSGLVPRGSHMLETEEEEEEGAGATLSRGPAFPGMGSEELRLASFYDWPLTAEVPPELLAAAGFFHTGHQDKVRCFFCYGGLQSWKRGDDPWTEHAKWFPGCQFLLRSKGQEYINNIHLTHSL
Briefly: Fluorescence polarization peptide binding assay, MLXBIR3SG. Particulars: 0.06 μM MLXBIR3SG, 5 nM AVP-diPhe-FAM probe; for Ki: Ki determined from IC50. As to the method:
In the following experiments was used a chimeric BIR domain referred to as MLXBIR3SG in which 11 of 110 residues correspond to those found in XIAP-BIR3, while the remainder correspond to ML-IAP-BIR. […] The improved caspase-9 inhibition of the chimeric BIR domain MLXBIR3SG has been correlated with increased inhibition of doxorubicin-induced apoptosis when transfected into MCF7 cells.
as §1, §2

Assay [3] has as its target T3, cIAP1XBIR3 (Homo sapiens, UniProt Q13490, C308S/R332G/S292A).
T3 construct: made in house
The assay can be described thus: Fluorescence polarization peptide binding assay, cIAP1XBIR3. Conditions: 0.2 μM cIAP1XBIR3, 5 nM AVP-diPhe-FAM probe; for Ki: Ki determined from IC50. The protocol:
(§3) Similar cIAP1-BIR3/XIAP-BIR3 and cIAP2-BIR3/XIAP-BIR3 chimeric proteins, cIAP1XBIR3 and cIAP2XBIR3, respectively, were engineered, expressed, and purified in a similar fashion to MLXBIR3SG. As with MLXBIR3SG, the amino acid sequences of these BIR domains retain the native cIAP peptide-binding sites.
as §1, §2

Assay [4] has as its target T4, cIAP2XBIR3 (Homo sapiens, UniProt Q13489, C294S/R318G/S278A).
T4 construct: made in house
Briefly: Fluorescence polarization peptide binding assay, cIAP2XBIR3. Particulars: 0.4 μM cIAP2XBIR3, 5 nM AVP-diPhe-FAM probe. As to the method: as §3
Polarization experiments were performed on an Analyst HT 96-384 (Molecular Devices Corp.) according to the procedure of Keating, S. M., Marsters, J, Beresini, M., Ladner, C., Zioncheck, K., Clark, K., Arellano, F., and Bodary, S. (2000) in Proceedings of SPIE: In Vitro Diagnostic Instrumentation (Cohn, G. E., Ed.) pp 128-137, Bellingham, Wash. Initial polarization experiments were performed in order to determine dissociation constants (Kd) between IAP protein BIR domains and fluorescent probes. […] The resulting reactions were incubated for 30 minutes at room temperature in 384-well black HE96 plates (Molecular Devices Corp.; Sunnyvale, Calif.) and fluorescence values were measured using standard filters for the fluorescein fluorophore (λex=485 nm, λem=530 nm). […] The apparent Kd values were determined from the EC50 values. […]

T3 sequence (Q13490 with tags, fused parts or gaps S292A/C308S/R332G): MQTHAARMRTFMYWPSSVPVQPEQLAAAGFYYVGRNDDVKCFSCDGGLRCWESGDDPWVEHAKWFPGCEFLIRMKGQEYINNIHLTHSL
T1 sequence (P98170 241-356 limits assumed): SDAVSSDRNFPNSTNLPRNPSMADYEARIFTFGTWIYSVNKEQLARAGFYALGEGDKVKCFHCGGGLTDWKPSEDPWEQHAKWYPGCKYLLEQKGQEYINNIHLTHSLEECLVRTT
T4 sequence (Q13489 with tags, fused parts or gaps S278A/C294S/R318G): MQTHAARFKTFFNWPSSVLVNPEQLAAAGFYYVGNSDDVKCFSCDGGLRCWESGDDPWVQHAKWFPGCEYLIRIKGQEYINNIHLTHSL

Usually Ki stands for the equilibrium dissociation constant of an inhibitor or competing ligand from its target. One may read the IC50 as the midpoint of a concentration-inhibition curve. With `CN[C@@H](C)C(=O)N[C@H](C(=O)N1CCC[C@H]1c1cc2ccnc(-c3ccccc3)c2[nH]1)C1CCCCC1` [compound 13], the Ki in assay [1] was 0.0638 µM; in assay [2] it was 0.0207 µM. Also, the IC50 in assay [2] is 0.091 µM.

`CN[C@@H](C)C(=O)N[C@H](C(=O)N1CCC[C@H]1c1cc2ncnc(-c3ccccc3)c2[nH]1)C1CCCCC1` [compound 3]: in assay [1], the inhibitory constant (Ki) came out at 0.0792 µM and the IC50 is 0.445 µM. For the same molecule, in assay [2], the IC50 stood at 0.131 µM and the Ki was determined as 0.0298 µM.

Turning to `CN[C@@H](C)C(=O)N[C@H](C(=O)N1CCC[C@H]1c1cc2ccnc(-c3ccc(F)cc3)c2[nH]1)C1CCCCC1` [compound 10], in assay [1], the inhibition constant Ki stood at 0.102 µM and the half-inhibitory concentration (IC50) stood at 0.574 µM. For the same molecule, in assay [2], the IC50 came to 0.0993 µM and the Ki stood at 0.0226 µM.

Regarding `CN[C@@H](C)C(=O)N[C@H](C(=O)N1CCC[C@H]1c1cc2nc(C)nc(-c3ccccc3)c2[nH]1)C1CCOCC1` [compound 6], in assay [1], the Ki turned out to be 0.201 µM and the 50% inhibitory concentration (IC50) stood at 1.13 µM. In addition, in assay [2], the IC50 came out at 0.359 µM and the inhibition constant Ki is 0.0819 µM.

In the case of `CN[C@@H](C)C(=O)N[C@H](C(=O)N1CCC[C@H]1c1cc2ccnc(-c3ccccc3Cl)c2[nH]1)C1CCOCC1` [compound 11], the Ki was 0.121 µM in assay [1], 0.148 µM in assay [2] and 0.0301 µM in assay [3]. Besides, the IC50 in assay [1] worked out at 0.682 µM; in assay [2] it was 0.648 µM; in assay [3], 0.194 µM.

In the case of `CN[C@@H](C)C(=O)N[C@H](C(=O)N1CCC[C@H]1c1cc2ncnc(-c3ccccc3)c2[nH]1)C1CCOCC1` [compound 4], in assay [1], the Ki was 0.0769 µM and the 50% inhibitory concentration (IC50) was determined as 0.434 µM. Further, in assay [2], the IC50 is 0.156 µM and the inhibition constant Ki stood at 0.0356 µM.

In the case of `CN[C@@H](C)C(=O)N[C@H](C(=O)N1CCC[C@H]1c1cc2ccnc(-c3ccccc3)c2[nH]1)C1CCOCC1` [compound 1], the IC50 was determined as 0.502 µM in assay [4], 0.508 µM in assay [1], 0.158 µM in assay [2] and 0.461 µM in assay [3]. Moreover, the inhibition constant Ki in assay [4] (Ki determined from IC50) is 0.109 µM; in assay [1] it was 0.0905 µM; in assay [2], 0.036 µM; in assay [3], 0.0713 µM.

Consider `CN[C@@H](C)C(=O)N[C@H](C(=O)N1CCC[C@H]1c1cc2ccnc(-c3ccccc3)c2[nH]1)c1ccccc1` [compound 12], for which, in assay [1], the Ki turned out to be 0.0644 µM. Moreover, in assay [2], the concentration for half-maximal inhibition (IC50) stood at 0.144 µM and the inhibitory constant (Ki) is 0.0329 µM.

As for `CN[C@@H](C)C(=O)N[C@H](C(=O)N1CCC[C@H]1c1cc2ccnc(-c3ccc(F)cc3)c2[nH]1)C1CCOCC1` [compound 7], in assay [1], the inhibition constant Ki came out at 0.0856 µM and the IC50 was found to be 0.481 µM. In assay [2], the concentration for half-maximal inhibition (IC50) was found to be 0.113 µM and the Ki is 0.0257 µM.

Turning to `CN[C@@H](C)C(=O)N[C@H](C(=O)N1CCC[C@H]1c1cc2nc(C)nc(-c3ccc(F)cc3)c2[nH]1)C1CCOCC1` [compound 8], the Ki was determined as 0.089 µM in assay [1] and 0.0246 µM in assay [2]. The IC50 in assay [1] was found to be 0.5 µM; in assay [2], 0.108 µM.

Regarding `CN[C@@H](C)C(=O)N[C@H](C(=O)N1CCC[C@H]1c1cc2nc(C)nc(-c3ccccc3)c2[nH]1)C1CCCCC1` [compound 5], in assay [1], the Ki came to 0.0915 µM and the concentration for half-maximal inhibition (IC50) was 0.514 µM. In assay [2], the half-maximal inhibitory concentration (IC50) was determined as 0.139 µM and the inhibition constant Ki was 0.0317 µM.

For the molecule `CN[C@@H](C)C(=O)N[C@H](C(=O)N1CCC[C@H]1c1cc2nc(C)nc(-c3ccc(F)cc3)c2[nH]1)C1CCCCC1` [compound 9], the values for the inhibitory constant (Ki) in assay [1] and in assay [2] were 0.0649 µM and 0.0141 µM, respectively. For the same molecule, the IC50 in assay [1] was found to be 0.364 µM; in assay [2] it was 0.062 µM.

The record behind these values is patent US20110218211A1, “AZAINDOLE INHIBITORS OF IAP” (Genentech, Inc., priority 2008, published 2011).
